Seven compounds from article PMC10728895, “Stapled Phd Peptides Inhibit Doc Toxin Induced Growth Arrest in Salmonella” (ACS Chemical Biology, 2023) can be followed below.

Positions of bridges follow the written chain, without caps; N, C: chain ends. Non-standard residues stand in square brackets, D forms with d. Residues, ends and D or L forms follow the SMILES beside them. S5 = C=CCCC[C@](C)(N)C(=O)O; Nle = CCCC[C@H](N)C(=O)O

The subject of test [1] is DocSTm (phosphorylation of EF-TuSTm). Nature of the test: Dot blot EF-Tu phosphorylation assay. Format: biochemical, Salmonella Typhimurium. To be noted: DocSTm 1 μM, EF-TuSTm 3 μM, peptide 10 μM to 5 nM (3-fold dilutions), 16 h RT, dot blot anti-phosphothreonine; compared at three times the DocSTm concentration; two independent experiments. As to the method: Samples were prepared in assay buffer [50 mM HEPES (pH 7.5), 25 mM (NH4)2SO4, 2 mM TCEP, 2 mM MgCl2, and 1 mM ATP] with a final concentration of recombinant Doc at 1 μM, recombinant EF-Tu at 3 μM, and varying concentrations of synthetic Phd peptides (final concentrations: 10 μM to 5 nM). EF-Tu (3 μM) in assay buffer was used as a negative control (no Doc and Phd peptide), while EF-Tu (3 μM) with Doc (1 μM) in assay buffer was used as a positive control (no Doc inhibitor). The final sample volume was 10 μL. Samples were incubated for 16 h at RT and subsequently spotted on a nitrocellulose membrane. Phosphorylated EF-Tu was detected by immunodecoration using a rabbit monoclonal antiphosphothreonine antibody (Abcam, ab218195) at 1:2000 dilution (1 h at 4 °C), followed by incubation with a goat antirabbit IgG (H + L) HRP conjugate antibody (Advansta) at 1:10,000 dilution (1 h at RT). Chemiluminescence was developed using the HRP Luminata Kit (Merck, WBLUR0100) and captured with an ImageQuant LAS4000 Western blot imaging system (GE HealthCare). Each peptide was tested in two independent experiments.

Test [2] deals with DocSTm toxin. To be noted: DocSTm 5 μM, peptide 50 μM, pH 8.0; average ± SD, replicates 3-48 (Table S3). A digest of the protocol:
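Thermal shift with 5 μM recombinant Doc toxin and 50 μM Phd peptides in 20 mM K2HPO4, 50 mM (NH4)2SO4, pH 8.0, SYPRO Orange 3×, ramped 25–95 °C. Tm from Boltzmann fit; ΔTm is peptide-bound minus free DocSTm Tm, triplicates.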

In the case of `CCCC[C@H](NC(=O)[C@H](Cc1c[nH]c2ccccc12)NC(C)=O)C(=O)N[C@@H](CC(N)=O)C(=O)N[C@@H](CC(N)=O)C(=O)N[C@@H](CCC(=O)O)C(=O)N[C@@H](Cc1ccccc1)C(=O)N[C@@H](C)C(=O)N[C@@H](C)C(=O)N[C@H](C(=O)N[C@@H](CCCC)C(=O)N[C@@H](C)C(=O)N[C@H](C(=O)N[C@@H](Cc1c[nH]cn1)C(=O)NCC(=O)N[C@@H](CCCNC(=N)N)C(=O)N[C@@H](CCC(N)=O)C(=O)N[C@@H](CC(C)C)C(=O)N[C@@H](CCCNC(=N)N)C(=O)N[C@@H](CCCNC(=N)N)C(=O)N[C@@H](CC(C)C)C(=O)N[C@@H](C)C(=O)N[C@@H](CCCNC(=N)N)C(=O)N[C@@H](CCCCN)C(=O)O)C(C)C)[C@@H](C)CC` [Peptide 33] (Ac-W[Nle]NNEFAAI[Nle]AVHGRQLRRLARK-OH), in test [1], the “Inhibition of EF-TuSTm phosphorylation by DocSTm (concentration needed for full inhibition)” value (shortened to “Inhibition of EF-TuSTm phosphorylation”) is listed as “higher than three times the DocSTm concentration”. For the same compound, the “Average Tm of DocSTm in the presence of peptide” value (“Average Tm of DocSTm” below) in test [2] is 63.0 ± 0.8 °C.
The like results for `CCCC[C@H](NC(=O)[C@H](Cc1c[nH]c2ccccc12)NC(C)=O)C(=O)N[C@@H](CCCNC(=N)N)C(=O)N[C@@H](CC(=O)O)C(=O)N[C@@H](CCC(=O)O)C(=O)N[C@@H](Cc1ccccc1)C(=O)N[C@@H](CCCNC(=N)N)C(=O)N[C@@H](C)C(=O)N[C@H](C(=O)N[C@@H](CCCC)C(=O)N[C@@H](CCCNC(=N)N)C(=O)N[C@H](C(=O)N[C@@H](Cc1c[nH]cn1)C(=O)NCC(=O)N[C@@H](CC(N)=O)C(=O)N[C@@H](CCC(=O)O)C(=O)N[C@@H](CC(C)C)C(=O)N[C@@H](CCCNC(=N)N)C(=O)N[C@@H](CCC(=O)O)C(=O)N[C@@H](CC(C)C)C(=O)N[C@@H](C)C(=O)N[C@@H](CC(=O)O)C(=O)N[C@@H](CCCCN)C(=O)O)C(C)C)[C@@H](C)CC` [Peptide 19] (Ac-W[Nle]RDEFRAI[Nle]RVHGNELRELADK-OH) were, in that order, “fully inhibited” and 62.5 ± 0.9 °C.
Regarding `CCCC[C@H](NC(=O)[C@H](Cc1c[nH]c2ccccc12)NC(C)=O)C(=O)N[C@@H](CCCNC(=N)N)C(=O)N[C@@]1(C)CCCC=CCCC[C@@](C)(C(=O)N[C@H](C(=O)N[C@@H](CCCC)C(=O)N[C@@H](CCCNC(=N)N)C(=O)N[C@H](C(=O)N[C@@H](Cc2c[nH]cn2)C(=O)NCC(=O)N[C@@H](CC(N)=O)C(=O)N[C@@H](CCC(=O)O)C(=O)N[C@@H](CC(C)C)C(=O)N[C@@H](CCCNC(=N)N)C(=O)N[C@@H](CCC(=O)O)C(=O)N[C@@H](CC(C)C)C(=O)N[C@@H](C)C(=O)N[C@@H](CC(=O)O)C(=O)N[C@@H](CCCCN)C(=O)O)C(C)C)[C@@H](C)CC)NC(=O)[C@H](C)NC(=O)[C@H](Cc2ccccc2)NC(=O)[C@H](CCC(=O)O)NC1=O` [Peptide 17] (Ac-W[Nle]R[S5]EFA[S5]I[Nle]RVHGNELRELADK-OH; staple 4-8), the “Inhibition of EF-TuSTm phosphorylation” value in test [1] is listed as “required a higher concentration to achieve full inhibition”. The “Average Tm of DocSTm” value in test [2] turned out to be 61.3 ± 0.3 °C.
Turning to `CCCC[C@H](NC(=O)[C@H](Cc1c[nH]c2ccccc12)NC(C)=O)C(=O)N[C@@H](CCCNC(=N)N)C(=O)N[C@@H](CC(=O)O)C(=O)N[C@@H](CCC(=O)O)C(=O)N[C@@H](Cc1ccccc1)C(=O)N[C@@H](C)C(=O)N[C@@H](C)C(=O)N[C@H](C(=O)N[C@@H](CCCC)C(=O)N[C@@H](CCCNC(=N)N)C(=O)N[C@H](C(=O)N[C@@H](Cc1c[nH]cn1)C(=O)NCC(=O)N[C@@]1(C)CCCC=CCCC[C@@](C)(C(=O)N[C@@H](CC(C)C)C(=O)N[C@@H](C)C(=O)N[C@@H](CC(=O)O)C(=O)N[C@@H](CCCCN)C(=O)O)NC(=O)[C@H](CCCNC(=N)N)NC(=O)[C@H](CC(C)C)NC(=O)[C@H](CCC(=O)O)NC1=O)C(C)C)[C@@H](C)CC` [Peptide 18] (Ac-W[Nle]RDEFAAI[Nle]RVHG[S5]ELR[S5]LADK-OH; staple 15-19), the “Inhibition of EF-TuSTm phosphorylation” value in test [1] is “required a higher concentration to achieve full inhibition”. In test [2], the “Average Tm of DocSTm” value worked out at 66.3 ± 0.2 °C.
Consider `CCCC[C@H](NC(=O)[C@H](Cc1c[nH]c2ccccc12)NC(C)=O)C(=O)N[C@@H](CCCNC(=N)N)C(=O)N[C@@H](CC(=O)O)C(=O)N[C@@H](CCC(=O)O)C(=O)N[C@@H](Cc1ccccc1)C(=O)N[C@@H](C)C(=O)N[C@@H](C)C(=O)N[C@H](C(=O)N[C@@H](CCCC)C(=O)N[C@@H](CCCNC(=N)N)C(=O)N[C@H](C(=O)N[C@@H](Cc1c[nH]cn1)C(=O)NCC(=O)N[C@@H](CC(N)=O)C(=O)N[C@@H](CCC(=O)O)C(=O)N[C@@H](CC(C)C)C(=O)N[C@@H](CCCNC(=N)N)C(=O)N[C@@H](CCC(=O)O)C(=O)N[C@@H](CC(C)C)C(=O)N[C@@H](C)C(=O)N[C@@H](CC(=O)O)C(=O)N[C@@H](CCCCN)C(=O)O)C(C)C)[C@@H](C)CC` [Peptide 16] (Ac-W[Nle]RDEFAAI[Nle]RVHGNELRELADK-OH), for which, in test [1], the “Inhibition of EF-TuSTm phosphorylation” value was “fully inhibited”. The “Average Tm of DocSTm” value in test [2] was found to be 65.0 ± 0.4 °C.
In the case of `CCCC[C@H](NC(=O)[C@H](Cc1c[nH]c2ccccc12)NC(C)=O)C(=O)N[C@@H](CCCNC(=N)N)C(=O)N[C@@H](CC(=O)O)C(=O)N[C@@H](CCC(=O)O)C(=O)N[C@@H](Cc1ccccc1)C(=O)N[C@@H](CCCNC(=N)N)C(=O)N[C@@H](C)C(=O)N[C@H](C(=O)N[C@@H](CCCC)C(=O)N[C@@H](CCCNC(=N)N)C(=O)N[C@H](C(=O)N[C@@H](Cc1c[nH]cn1)C(=O)NCC(=O)N[C@@]1(C)CCCC=CCCC[C@@](C)(C(=O)N[C@@H](CC(C)C)C(=O)N[C@@H](C)C(=O)N[C@@H](CC(=O)O)C(=O)N[C@@H](CCCCN)C(=O)O)NC(=O)[C@H](CCCNC(=N)N)NC(=O)[C@H](CC(C)C)NC(=O)[C@H](CCC(=O)O)NC1=O)C(C)C)[C@@H](C)CC` [Peptide 21] (Ac-W[Nle]RDEFRAI[Nle]RVHG[S5]ELR[S5]LADK-OH; staple 15-19), the “Inhibition of EF-TuSTm phosphorylation” value in test [1] is on record as “required a higher concentration to achieve full inhibition”. Besides, the “Average Tm of DocSTm” value in test [2] worked out at 61.1 ± 2.5 °C.
On to `CCCC[C@H](NC(=O)[C@H](Cc1c[nH]c2ccccc12)NC(C)=O)C(=O)N[C@@H](CC(N)=O)C(=O)N[C@@H](CC(N)=O)C(=O)N[C@@H](CCC(=O)O)C(=O)N[C@@H](Cc1ccccc1)C(=O)N[C@@H](C)C(=O)N[C@@H](C)C(=O)N[C@H](C(=O)N[C@@H](CCCC)C(=O)N[C@@H](C)C(=O)N[C@H](C(=O)N[C@@H](Cc1c[nH]cn1)C(=O)NCC(=O)N[C@@H](CCCNC(=N)N)C(=O)N[C@@H](CCC(N)=O)C(=O)N[C@@H](CC(C)C)C(=O)N[C@@H](CCCNC(=N)N)C(=O)N[C@@H](CCCNC(=N)N)C(=O)N[C@@H](CC(C)C)C(=O)N[C@@H](C)C(=O)N[C@@H](CC(N)=O)C(=O)N[C@@H](CCCCN)C(=O)O)C(C)C)[C@@H](C)CC` [Peptide 31] (Ac-W[Nle]NNEFAAI[Nle]AVHGRQLRRLANK-OH), for which, in test [1], the “Inhibition of EF-TuSTm phosphorylation” value was “higher than three times the DocSTm concentration”. The “Average Tm of DocSTm” value in test [2] was determined as 61.6 ± 1.9 °C.
